Measured values published in patent US8927538B2, “Carbazole linked pyrrolo[2,1-c][1,4]benzodiazefine hybrids as potential anticancer agents and process for the preparation thereof” (Council of Scientific & Industrial Research, priority 2010, dated 2015).

How the values were obtained:
EKVX = experiment: NCI SRB cytotoxicity, EKVX; assay type: cell-based, human; conditions: Non-small cell lung EKVX, 48 hrs exposure
From the text: (§1) The C8-linked carbazole-PBD hybrids have been tested against sixty human tumour cell lines derived from nine cancer types (leukemia, non-small cell lung cancer, colon cancer, CNS cancer, melanoma, ovarian cancer, renal cancer, prostate cancer and breast cancer) as per NCI protocol, For each compound, dose response curves for individual cell lines have been measured at a minimum of five concentrations at 10 fold dilutions. A protocol of 48 hrs continuous drug exposure has been used, and a sulforhodamine B (SRB) protein assay was used to estimate cell viability or growth. The concentration for 50% cell growth inhibition (GI50), total cell growth inhibition (TGI, 0% growth) and 50% cell death (LC50, […]) compared with the control has been calculated (Table-3).
(§2) Compounds 6c and 14a have been evaluated for in vitro cytotoxicity in sixty cell lines from nine human cancer types of lung (Hop-62, NCI-H226, NCI-H522), leukemia (K-562, SR), colon (HCT-116, HCT-15, HCC-2998), CNS(SF-539), melanoma (SK-MEL-5, UACC-62, M14), ovarian (IGROV1), renal (A498), prostate (PC3) breast (BT-549, MDA-MB-435, HS578T) origin. The results are expressed as percent of cell growth determined relative to that of untreated control cells (Table 1).

[1] = tested on: sixty human tumour cell lines derived from nine cancer types; experiment: NCI in vitro cytotoxicity screen (SRB), sixty cell lines; assay type: cell-based; conditions: for GI50: 48 hrs continuous drug exposure, SRB, read-out: GI50 against sixty cell lines in nine cancer cell panels; for in vitro cytotoxicity: sixty cell lines from nine human cancer types
From the text: as §1, §2

HS 578T = experiment: NCI SRB cytotoxicity, HS 578T; assay type: cell-based, human; conditions: Breast HS 578T, 48 hrs exposure
From the text: as §1, §2

CCRF-CEM = experiment: NCI SRB cytotoxicity, CCRF-CEM; assay type: cell-based, human; conditions: Leukemia CCRF-CEM, 48 hrs exposure
From the text: as §1, §2

SK-MEL-2 = experiment: NCI SRB cytotoxicity, SK-MEL-2; assay type: cell-based, human; conditions: Melanoma SK-MEL-2, 48 hrs exposure
From the text: as §1, §2

breast cancer cell lines = experiment: NCI SRB cytotoxicity, breast panel; assay type: cell-based, human; conditions: average of six to eight cell lines
From the text: as §1, §2

HCC-2998 = experiment: NCI SRB cytotoxicity, HCC-2998; assay type: cell-based, human; conditions: Colon HCC-2998, 48 hrs exposure
From the text: as §1, §2

[2] = tested on: Non small cell lung cancer cell lines; experiment: NCI SRB cytotoxicity, non-small cell lung panel; assay type: cell-based, human; conditions: average of six to eight cell lines
From the text: as §1, §2

Renal cancer cell lines = experiment: NCI SRB cytotoxicity, renal panel; assay type: cell-based, human; conditions: average of six to eight cell lines
From the text: as §1, §2

HL-60(TB) = experiment: NCI SRB cytotoxicity, HL-60(TB); assay type: cell-based, human; conditions: Leukemia HL-60(TB), 48 hrs exposure
From the text: as §1, §2

RXF 393 = experiment: NCI SRB cytotoxicity, RXF 393; assay type: cell-based, human; conditions: Renal RXF 393, 48 hrs exposure
From the text: as §1, §2

HOP-62 = experiment: NCI SRB cytotoxicity, HOP-62; assay type: cell-based, human; conditions: Non-small cell lung HOP-62, 48 hrs exposure
From the text: as §1, §2

MALME-3M = experiment: NCI SRB cytotoxicity, MALME-3M; assay type: cell-based, human; conditions: Melanoma MALME-3M, 48 hrs exposure
From the text: as §1, §2

[3] = tested on: prostate cancer cell lines; experiment: NCI SRB cytotoxicity, prostate panel; assay type: cell-based, human; conditions: average of cell lines
From the text: as §1, §2

CNS cancer cell lines = experiment: NCI SRB cytotoxicity, CNS panel; assay type: cell-based, human; conditions: average of six to eight cell lines
From the text: as §1, §2

SK-MEL-5 = experiment: NCI SRB cytotoxicity, SK-MEL-5; assay type: cell-based, human; conditions: Melanoma SK-MEL-5, 48 hrs exposure
From the text: as §1, §2

OVCAR-3 = experiment: NCI SRB cytotoxicity, OVCAR-3; assay type: cell-based, human; conditions: Ovarian OVCAR-3, 48 hrs exposure
From the text: as §1, §2

786-0 = experiment: NCI SRB cytotoxicity, 786-0; assay type: cell-based, human; conditions: Renal 786-0, 48 hrs exposure
From the text: as §1, §2

[4] = tested on: Leukemia cancer cell lines; experiment: NCI SRB cytotoxicity, leukemia panel; assay type: cell-based, human; conditions: average of six to eight cell lines
From the text: as §1, §2

[5] = tested on: ovarian cancer cell lines; experiment: NCI SRB cytotoxicity, ovarian panel; assay type: cell-based, human; conditions: average of six to eight cell lines
From the text: as §1, §2

UACC-257 = experiment: NCI SRB cytotoxicity, UACC-257; assay type: cell-based, human; conditions: Melanoma UACC-257, 48 hrs exposure
From the text: as §1, §2

A498 = experiment: NCI SRB cytotoxicity, A498; assay type: cell-based, human; conditions: Renal A498, 48 hrs exposure
From the text: as §1, §2

HOP-92 = experiment: NCI SRB cytotoxicity, HOP-92; assay type: cell-based, human; conditions: Non-small cell lung HOP-92, 48 hrs exposure
From the text: as §1, §2

HCT-116 = experiment: NCI SRB cytotoxicity, HCT-116; assay type: cell-based, human; conditions: Colon HCT-116, 48 hrs exposure
From the text: as §1, §2

SK-MEL-28 = experiment: NCI SRB cytotoxicity, SK-MEL-28; assay type: cell-based, human; conditions: Melanoma SK-MEL-28, 48 hrs exposure
From the text: as §1, §2

[6] = against nine human tumor cell lines

`COc1cc2c(cc1OCCCCCn1c3ccccc3c3ccccc31)N=C[C@@H]1CCCN1C2=O` [Compound 6c, 7-Methoxy-8-[5-(9H-9-carbazoly)pentyloxy]-(11aS)-1,2,3,11a-tetrahydro-5H-Pyrrolo[2,1-c][1,4]benzodiazepin-5-one] was tested, and the GI50 (EKVX) was 5.27 µM, the GI50 [1] was 1.03 µM and the “log10 GI50 mean graph midpoint value” [1, 6] was −5.67 mol/lit. The “log10 LC50 mean graph midpoint value” [1, 6] was −4.67 mol/lit, the “log10 TGI mean graph midpoint value” [1, 6] was −5.29 mol/lit and the “Log10 GI50 mean graph midpoint (MG_MID)” value ([1]; human tumour cell lines) was −5.67. For the same molecule, the “Log10 LC50 mean graph midpoint (MG_MID)” value ([1]; human tumour cell lines) was −4.67, the “Log10 TGI mean graph midpoint (MG_MID)” value ([1]; human tumour cell lines) was −5.29 and the “in vitro cytotoxicity” value [1] was “significant cytotoxicity against some cancer cell lines”. The GI50 (HS 578T) was 1.97 µM, the GI50 (CCRF-CEM) was 1.97 µM and the GI50 (SK-MEL-2) was 1.67 µM. The “Log10 GI50” value (breast cancer cell lines) was −5.67 mol/L, the “Log10 LC50 (concentration causing 50% lethality)” value (breast cancer cell lines) was −4.47 mol/L and the GI50 (HCC-2998) was 1.71 µM. For the same molecule, the “Log10 GI50” value [2] was −5.64 mol/L, the “Log10 LC50 (concentration causing 50% lethality)” value [2] was −4.78 mol/L and the “Log10 LC50 (concentration causing 50% lethality)” value (Renal cancer cell lines) was −4.99 mol/L. For the same molecule, the GI50 (HL-60(TB)) was 1.72 µM, the GI50 (RXF 393) was 4.34 µM and the GI50 (HOP-62) was 1.8 µM. The GI50 (MALME-3M) was 2.2 µM, the “Log10 GI50” value [3] was −5.64 mol/L and the “Log10 LC50 (concentration causing 50% lethality)” value [3] was −4.50 mol/L. For the same molecule, the “Log10 GI50” value (CNS cancer cell lines) was −5.76 mol/L, the “Log10 LC50 (concentration causing 50% lethality)” value (CNS cancer cell lines) was −4.97 mol/L and the GI50 (SK-MEL-5) was 1.73 µM. For the same molecule, the GI50 (OVCAR-3) was 1.88 µM, the GI50 (786-0) was 1.73 µM and the “Log10 GI50” value [4] was −5.56 mol/L. The “Log10 LC50 (concentration causing 50% lethality)” value [4] was −4.18 mol/L, the “Log10 GI50” value [5] was −5.57 mol/L and the “Log10 LC50 (concentration causing 50% lethality)” value [5] was −4.59 mol/L. The GI50 (UACC-257) was 2.29 µM, the GI50 (A498) was 1.77 µM and the GI50 (HOP-92) was 1.31 µM. The GI50 (HCT-116) was 1.65 µM and the GI50 (SK-MEL-28) was 1.8 µM.
For `COc1cc2c(cc1OCCCN1CCN(CCCn3c4ccccc4c4ccccc43)CC1)N=C[C@@H]1CCCN1C2=O` [Compound 14a], the GI50 (EKVX) was 0.14 µM, the GI50 [1] was less than 0.01 µM and the “activity of 14a compared with 6c” value ([1]; GI50 comparison) was “ten folds higher activity than 6c”. For the same molecule, the “Log10 TGI mean graph midpoint (MG_MID)” value ([1]; human tumour cell lines) was −6.24, the “in vitro cytotoxicity” value [1] was “significant cytotoxicity against some cancer cell lines” and the GI50 (HS 578T) was 0.16 µM. The GI50 (CCRF-CEM) was 0.02 µM, the GI50 (SK-MEL-2) was 0.19 µM and the “Log10 GI50” value (breast cancer cell lines) was −6.96 mol/L. For the same molecule, the “Log10 LC50 (concentration causing 50% lethality)” value (breast cancer cell lines) was −5.59 mol/L, the GI50 (HCC-2998) was 0.13 µM and the “Log10 GI50” value [2] was −6.96 mol/L. For the same molecule, the “Log10 LC50 (concentration causing 50% lethality)” value [2] was −5.62 mol/L, the “Log10 GI50” value (Renal cancer cell lines) was −6.72 mol/L and the “Log10 LC50 (concentration causing 50% lethality)” value (Renal cancer cell lines) was −5.61 mol/L. It also gave a GI50 (HL-60(TB)) of 0.03 µM, a GI50 (RXF 393) of 0.22 µM and a GI50 (HOP-62) of 0.08 µM. The GI50 (MALME-3M) was 0.15 µM, the “Log10 GI50” value [3] was −7.42 mol/L and the “Log10 LC50 (concentration causing 50% lethality)” value [3] was −5.59 mol/L. The “Log10 GI50” value (CNS cancer cell lines) was −6.96 mol/L, the “Log10 LC50 (concentration causing 50% lethality)” value (CNS cancer cell lines) was −5.67 mol/L and the GI50 (SK-MEL-5) was 0.23 µM. The GI50 (OVCAR-3) was 0.069 µM, the GI50 (786-0) was 0.19 µM and the “Log10 GI50” value [4] was −7.55 mol/L. The “Log10 GI50” value [5] was −7.22 mol/L, the “Log10 LC50 (concentration causing 50% lethality)” value [5] was −5.80 mol/L and the GI50 (UACC-257) was 0.15 µM. It also gave a GI50 (A498) of 0.17 µM, a GI50 (HOP-92) of 0.27 µM and a GI50 (HCT-116) of 0.06 µM. For the same molecule, the GI50 (SK-MEL-28) was 0.06 µM.
